Columns and labels:
C. jejuni strain C338 [1] = assay: microdilution susceptibility test, inhibition of growth of C. jejuni in vitro; format: cell-based, Campylobacter jejuni; conditions: for % inhibition of growth: C. jejuni strain C338, phage-displayed peptide
Experimental: Representative affinity-selected phage peptides were tested for their ability to inhibit the growth of C. jejuni strains in vitro. Each phage clone was amplified by E. coli infection and twice purified by PEG precipitation and resuspended in TBS buffer (pH 7.5). Phage concentrations were calculated as […] using the ultraviolet (UV) absorbance measurements on a spectrophotometer (Smith & Scott, 1993). […] In brief: each of the C. jejuni strains was resuspended to an OD595 of 0.2 in Nutrient Broth and then diluted to 10^4-10^5 CFU/mL in Nutrient Broth containing Campylobacter growth supplement. […] A microaerophilic environment was provided by GasPak E2 Campy Pouches (BD Biosciences). After 24-48 h at 37° C. without shaking, the optical densities of the bacterial cultures were measured at OD595 nm in a plate reader (Victor2, Perkin Elmer).
(§1) The number of viable bacteria in the 96 well plates was determined by performing colony counts on the diluted inoculum and plating onto blood agar plates. Colony counts on blood agar plates were also used to determine the initial inoculum of bacteria used in the assay. A Gram Stain Kit was used to check the morphology of C. jejuni after incubation with the phage peptides.

C. jejuni strain C338 [2] = assay: morphology of C. jejuni after incubation with phage peptides (Gram stain); format: cell-based, Campylobacter jejuni; conditions: normal morphology is spiral-shaped
Experimental: The morphology has changed to thread-shaped. • B. Strain C338 incubated with unselected phage library showing the normal spiral-shaped morphology • C.
as §1

With “FLIDSPLASIGPTSM (f88-4/15-mer peptide phage-display library) [CP3/3]” the “% inhibition of growth” value (C. jejuni strain C338 [1]) was 99.3%.

With “GRFLIRVTSSPLGPD (f88-4/15-mer peptide phage-display library) [CP3/1]” the “morphology of C. jejuni after incubation with phage-displayed peptide” value (C. jejuni strain C338 [2]) was “thread-shaped”, the “% inhibition of growth” value (C. jejuni strain C338 [1]) was 96.7% and the “inhibition of growth of C. jejuni” value (C. jejuni strain C338 [1]; initial bacterial inoculum 2.8×10^4 CFU/mL) was 97%. The “inhibition of growth of C. jejuni” value (C. jejuni strain C338 [1]; initial bacterial inoculum 2.8×10^4 CFU/mL as printed (second value for CP3/1)) was 89%.

In the case of “TCNLSDYTLPRARVL (f88-4/15-mer peptide phage-display library) [BT3/4]”, the “% inhibition of growth” value (C. jejuni strain C338 [1]) was 60% and the “inhibition of growth of C. jejuni in vitro (in words)” value (C. jejuni strain C338 [1]; bacterial concentration of 1×10^4 CFU/mL) was “inhibited the growth”.

With “TGSGLYLHQMVYLYQ (f88-4/15-mer peptide phage-display library) [CP3/2]” the “% inhibition of growth” value (C. jejuni strain C338 [1]) was 92% and the “inhibition of growth of C. jejuni” value (C. jejuni strain C338 [1]; bacterial inoculum 1.6×10^5 CFU/mL) was 87%.

In the case of “VPESIHKASLVCYRF (f88-4/15-mer peptide phage-display library) [BP3/5]”, the “morphology of C. jejuni after incubation with phage-displayed peptide” value (C. jejuni strain C338 [2]) was “coccoid shaped”.

From patent publication US20100190719A1, “PEPTIDES AS ANTIMICROBIAL AGENTS TOWARDS CAMPYLOBACTER SPP” (priority 2007, published 2010)
